Results taken from publication PMC4122355, “Inhibitor of the Tyrosine Phosphatase STEP Reverses Cognitive Deficits in a Mouse Model of Alzheimer's Disease” (PLoS Biology, 2014).

How the values were obtained:
mice = system: mice; design: method as in earlier work; conditions: cited from earlier work
PTP1B = target: T1, PTP1B (Homo sapiens, UniProt P18031); experiment: Selectivity pNPP assay, full-length PTPs: PTP1B; assay type: biochemical; conditions: full-length PTP, 10 nM, 500 µM pNPP
T1 construct: GST (N); host or cells: E. coli BL21 (DE3)
T1 sequence (P18031 1-435): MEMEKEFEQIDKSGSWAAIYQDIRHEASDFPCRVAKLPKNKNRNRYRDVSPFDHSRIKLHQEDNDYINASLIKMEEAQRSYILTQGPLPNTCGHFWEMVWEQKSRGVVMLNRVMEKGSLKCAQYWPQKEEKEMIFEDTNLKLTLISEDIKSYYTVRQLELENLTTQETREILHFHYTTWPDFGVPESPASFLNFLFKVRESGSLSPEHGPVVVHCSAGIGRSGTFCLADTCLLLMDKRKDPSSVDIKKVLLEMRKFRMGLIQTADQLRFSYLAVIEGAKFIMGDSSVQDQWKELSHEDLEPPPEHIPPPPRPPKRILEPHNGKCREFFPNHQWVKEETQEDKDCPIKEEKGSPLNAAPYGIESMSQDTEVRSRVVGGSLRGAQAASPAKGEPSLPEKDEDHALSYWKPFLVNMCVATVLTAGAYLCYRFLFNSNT
Source text: (§1) Constructs were transformed into BL21 (DE3) E. coli cells. Fusion proteins were purified on a glutathione sepharose column.

STEP = target: T2, STEP (Mus musculus, UniProt P54830); experiment: Recovery of STEP activity by reducing agents; assay type: biochemical; conditions: after 1 h, DMSO control = 100%
T2 sequence (P54830 1-541): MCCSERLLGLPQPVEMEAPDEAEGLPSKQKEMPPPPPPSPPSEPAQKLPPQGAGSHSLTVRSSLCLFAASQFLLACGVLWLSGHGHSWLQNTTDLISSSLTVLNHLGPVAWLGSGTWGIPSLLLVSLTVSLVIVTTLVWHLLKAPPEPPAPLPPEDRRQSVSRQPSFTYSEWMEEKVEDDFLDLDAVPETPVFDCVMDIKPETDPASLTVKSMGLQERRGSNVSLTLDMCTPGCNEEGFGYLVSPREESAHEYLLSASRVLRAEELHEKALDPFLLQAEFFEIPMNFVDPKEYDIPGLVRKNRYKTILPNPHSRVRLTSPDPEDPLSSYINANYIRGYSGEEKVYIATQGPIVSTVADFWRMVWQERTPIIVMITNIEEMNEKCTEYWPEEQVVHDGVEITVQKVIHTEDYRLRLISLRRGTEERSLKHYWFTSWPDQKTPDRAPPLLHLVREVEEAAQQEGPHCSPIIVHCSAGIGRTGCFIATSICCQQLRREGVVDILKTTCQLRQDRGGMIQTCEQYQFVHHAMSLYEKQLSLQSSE
Protocol: Each sample was aliquoted out and 50 µL was transferred to wells of a 96-well microtiter plate containing 40 µL of 2× assay buffer with added reductant (GSH or DTT, 1 mM final concentration) and shaken for 0, 15, 30, or 60 additional minutes at ambient temperature. The reaction was started by addition of 10 µL of 10× pNPP substrate (stock, 20 mM, 2 mM in assay; total assay volume, 100 µL), and reaction progress was immediately monitored at 405 nm at a temperature of 27°C. The initial rate data collected were used to determine enzyme activity standardized to the DMSO controls.

SHP-2 = target: T3, SHP-2 (Homo sapiens, UniProt Q06124); experiment: Selectivity pNPP assay, full-length PTPs: SHP-2; assay type: biochemical; conditions: full-length PTP, 10 nM, 500 µM pNPP
T3 construct: GST (N); made in house; host or cells: E. coli BL21 (DE3)
T3 sequence (Q06124 1-593): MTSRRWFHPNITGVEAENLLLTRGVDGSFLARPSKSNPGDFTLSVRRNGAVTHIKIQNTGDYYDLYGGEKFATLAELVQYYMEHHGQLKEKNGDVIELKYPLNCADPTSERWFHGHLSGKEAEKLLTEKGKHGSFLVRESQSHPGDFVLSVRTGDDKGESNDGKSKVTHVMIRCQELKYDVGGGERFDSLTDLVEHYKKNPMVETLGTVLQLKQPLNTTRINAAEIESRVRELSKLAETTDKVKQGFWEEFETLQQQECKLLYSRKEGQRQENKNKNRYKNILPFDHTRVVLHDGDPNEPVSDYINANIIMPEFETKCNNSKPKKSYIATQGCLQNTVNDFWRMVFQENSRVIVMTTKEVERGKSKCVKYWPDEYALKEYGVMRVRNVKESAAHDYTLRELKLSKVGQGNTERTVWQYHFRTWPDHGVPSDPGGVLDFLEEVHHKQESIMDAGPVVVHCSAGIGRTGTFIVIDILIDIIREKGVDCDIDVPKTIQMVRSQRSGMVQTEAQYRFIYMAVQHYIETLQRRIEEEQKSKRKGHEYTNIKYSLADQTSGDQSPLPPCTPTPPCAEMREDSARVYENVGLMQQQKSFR
Source text: as §1

[1] = cited from earlier work

Cl.Nc1cc(C(F)(F)F)cc2c1SSSSS2 [TC-2153, 8-(trifluoromethyl)-1,2,3,4,5-benzopentathiepin-6-amine hydrochloride]
Behavioural effects taken as evidence of crossing the blood brain barrier (mice): anxiolytic and anticonvulsant effects
IC50 (PTP1B): 0.7239 ± 0.0012 µM
Recovery of STEP activity with DTT (STEP; STEP 200 nM preincubated with 5 µM TC-2153, 1 mM DTT): 75%
Recovery of STEP activity with GSH (STEP; STEP 200 nM preincubated with 5 µM TC-2153, 1 mM GSH): 29%
IC50 (SHP-2): 6.9 µM
Solubility in aqueous solution [1]: reasonable solubility in aqueous solution
